Key:
[1] = Particle size distribution of materials (laser diffraction); assay type: physicochemical; conditions: volume particle size distribution
Excerpt: Particle sizes are described herein by reference to the Dv50 value, which is the median particle size for a volume distribution. Thus, half the volume of the particles have diameters of less than the Dv50 value and half the volume of the particles have diameters of greater than the Dv50 value. This is a well-known manner in which to describe particle size distributions. The parameters of Dv10 and Dv90 may also be used to characterise a particle size distribution of a sample. 10% of the volume of particles have a diameter of less than the Dv10 value. 90% of the volume of the particles have a diameter of less than the Dv90 value.
The technique used to measure the Dv50 (and Dv10 and Dv90) values as stated herein is typically laser diffraction. For instance, the coarse lactose particles typically have a particle size distribution with a Dv50 value of from 40 μm to 80 μm as measured by laser diffraction and the fine lactose particles have a particle size distribution with a Dv50 value of from 5 μm to 10 μm as measured by laser diffraction.
The particle size distribution of low aqueous solubility materials, for instance the ensifentrine particles, may be as measured by laser diffraction using a wet powder dispersion system. For instance, the particle size distribution can be measured by laser diffraction using a Malvern Spraytec in conjunction with a wet dispersion cell. Typically, the instrument parameters for the Malvern Spraytec are as follows: • particle—standard opaque particle; • refractive index Particle—1.50; • refractive index (imaginary)—0.50; • density of particle—1.00; • refractive index of dispersant—1.33; • controller unit—1000 RPM; • measurement type—timed; • initial sampling time—30 s; • obscuration—20%-30%; • dispersant—1% Polysorbate 20 in deionised water.
The particle size distribution of materials soluble in water, for instance lactose particles, may be as measured by laser diffraction using a dry powder dispersion system. For instance, the particle size distribution can be measured by laser diffraction using a Malvern or Sympatec dry dispersion cell. […]

patients with COPD [2] = experiment: Phase II clinical study, single dose part (FEV1); assay type: in vivo, human
Experimental: (§1) A 2-part, 37 patient, Phase II single and repeat dose clinical study with ensifentrine in patients with COPD was completed using DPI formulations 12, 13 and 14 (Table 6).
Ensifentrine doses of 0.15, 0.5, 1.5, and 3 mg provided dose-dependent improvements from baseline in peak Forced Expiratory Volume in one second (FEV1) (over 4 hours) of up to 333 mL compared with placebo (p<0.01 for 1.5 mg and 3 mg doses).

patients with COPD [3] = experiment: Phase II clinical study, repeat dose crossover part (FEV1); assay type: in vivo, human; conditions: for Improvement from baseline in peak FEV1 (over 4 hours) on Day 7 compared with placebo: DPI; for Improvement in morning trough FEV1 on Day 7 compared with placebo: twice daily over 7 days, dose not identified
Experimental: as §1
The second part of the study was a complete block crossover study using the same patients that were dosed in the first part of the study. Ensifentrine doses of 0.15 mg to 3 mg dosed twice daily over 7 days also provided dose-dependent, highly statistically significant and clinically meaningful improvements from baseline in peak FEV1 (over 4 hours) on Day 7 of 102, 175, 180, and 260 mL, respectively, compared with placebo (p≤0.0001 for all dose groups). The improvement in FEV1 was sustained over the 12 hour dosing interval as shown by clinically meaningful and statistically significant improvements in average FEV1 over 12 hours of up to 147 mL (p<0.05 for all dose groups) and in morning trough FEV1 on Day 7 of 98, 87, and 97 mL, respectively, compared with placebo (p≤0.001 for each dose).

Dv10 (μm) [1]: 0.5 μm
Dv50 (μm) [1]: 1.3 μm
Dv90 (μm) [1]: 3.6 μm
SMILES: COc1cc2c(cc1OC)-c1c/c(=N\c3c(C)cc(C)cc3C)n(CCNC(N)=O)c(=O)n1CC2 [Ensifentrine, 9,10-dimethoxy-2-(2,4,6-trimethylphenylimino)-3-(N-carbamoyl-2-aminoethyl)-3,4,6,7-tetrahydro-2H-pyrimido[6,1-a]isoquinolin-4-one]
Improvement from baseline in peak FEV1 (over 4 hours) compared with placebo (patients with COPD [2]; single doses of 0.15, 0.5, 1.5 and 3 mg by DPI, maximum across doses): up to 333 mL
Bronchodilatory effect (patients with COPD [2]; single doses up to 3 mg by DPI, over 12 hours, COPD patients): rapid, dose-dependent, and statistically significant bronchodilatory effect
Improvement in average FEV1 over 12 hours (patients with COPD [3]; 0.15 mg to 3 mg twice daily over 7 days, maximum across doses): up to 147 mL
Improvement from baseline in peak FEV1 (over 4 hours) on Day 7 compared with placebo (patients with COPD [3]; 0.15 mg twice daily over 7 days): 102 mL
Improvement from baseline in peak FEV1 (over 4 hours) on Day 7 compared with placebo (patients with COPD [3]; 0.5 mg twice daily over 7 days): 175 mL
Improvement from baseline in peak FEV1 (over 4 hours) on Day 7 compared with placebo (patients with COPD [3]; 1.5 mg twice daily over 7 days): 180 mL
Improvement from baseline in peak FEV1 (over 4 hours) on Day 7 compared with placebo (patients with COPD [3]; 3 mg twice daily over 7 days): 260 mL
Improvement in morning trough FEV1 on Day 7 compared with placebo (patients with COPD [3]; first of three listed values): 98 mL
Improvement in morning trough FEV1 on Day 7 compared with placebo (patients with COPD [3]; second of three listed values): 87 mL
Improvement in morning trough FEV1 on Day 7 compared with placebo (patients with COPD [3]; third of three listed values): 97 mL
